# Measurements as given in patent publication US20250034122A1, “SUBSTITUTED N-CYANOPYRROLIDINES WITH ACTIVITY AS USP30 INHIBITORS” (MISSION THERAPEUTICS LIMITED, priority 2021, published 2025).
# How the values were obtained:
# USP30 = USP30 (Homo sapiens (Human), UniProt Q70CQ3); test: USP30 biochemical IC50 assay (fluorescence polarisation); conditions: geomean; USP30 4 nM, 30 min pre-incubation, TAMRA-peptide-ubiquitin FP substrate
# Procedure: Dilution plates were prepared at 21 times the final concentration (2100 μM for a final concentration of 100 μM) in 50% DMSO in a 96-well polypropylene V-bottom plate (Greiner #651201). A typical 8-point dilution series would be 100, 30, 10, 3, 1, 0.3, 0.1, 0.03 μM final. Reactions were performed in duplicate in black 384 well plates (small volume, Greiner 784076) in a final reaction volume of 21 μl.
# Either lpl of 50% DMSO or diluted compound was added to the plate. USP30 (Boston Biochem #E582) was diluted in reaction buffer (40 mM Tris, pH 7.5, 0.005% Tween 20, 0.5 mg/ml BSA, 5 mM beta-mercaptoethanol) to achieve a final assay concentration of 4 nM, and 10 μl of diluted USP30 was added to the compound. Enzyme and compound were incubated for 30 min at room temp. Reactions were initiated by the addition of 50 nM of TAMRA labelled peptide linked to ubiquitin via an isopeptide bond as fluorescence polarisation substrate. Reactions were read immediately after addition of substrate and following a 2-hour incubation at room temperature. Readings were performed on a Pherastar Plus (BMG Labtech). λ Excitation 540 nm; λ Emission 590 nm.
# TOM20 ubiquitylation = test: TOM20-ubiquitylation assay (western blot of cell lysates); format: cell-based, Human; conditions: antimycin A/oligomycin mitophagy trigger, concentration for 1.5-fold gain of TOM20-Ub
# Text: TOM20-Ubiquitylation Assay Human cell lines can be challenged with mitochondrial depolarizing agents (ionophores (eg. CCCP, valinomycin), mitochondrial complex inhibitors (oligomycin, antimycin A)) to induce ubiquitylation of TOM20, which is then further promoted in the presence of USP30 inhibitors. TOM20 ubiquitylation is subsequently assessed through western blotting of the cell lysates, with TOM20 ubiquitylation adduct detection possible due to an 8 kDa molecule weight increase for each molecule of ubiquitin added, resulting in laddering of a TOM20 immunoreactive band. TOM20-ubiquitylation levels can be quantified using chemiluminescence densitometry of laddered immunoreactive bands.
# Sequence of USP30 (Q70CQ3 57-517): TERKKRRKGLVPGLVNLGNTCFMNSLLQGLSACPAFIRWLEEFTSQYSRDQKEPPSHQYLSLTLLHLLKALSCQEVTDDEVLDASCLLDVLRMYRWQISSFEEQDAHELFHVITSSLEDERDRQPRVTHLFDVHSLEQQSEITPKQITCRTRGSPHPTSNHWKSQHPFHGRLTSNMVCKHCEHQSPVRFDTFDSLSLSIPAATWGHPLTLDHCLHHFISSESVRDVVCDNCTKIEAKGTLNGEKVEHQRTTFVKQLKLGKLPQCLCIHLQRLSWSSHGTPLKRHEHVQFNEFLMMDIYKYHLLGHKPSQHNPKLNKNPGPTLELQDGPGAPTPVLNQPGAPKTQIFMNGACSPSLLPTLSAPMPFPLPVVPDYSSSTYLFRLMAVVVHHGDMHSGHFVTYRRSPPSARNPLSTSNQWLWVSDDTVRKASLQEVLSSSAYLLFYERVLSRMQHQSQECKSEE
Compound,IC50 (USP30) [nM],"EC1.5x (Geomean, nM); TOM20-Ub 1.5-fold gain (TOM20 ubiquitylation) [nM]"
"N#Cc1ccc(C2CC2)c(-c2nnc(C(=O)N(C3CC3)[C@@H]3C[C@@H](Cn4ccnn4)N(C#N)C3)o2)c1 [Example 2, N-((3R,5S)-5-((1H-1,2,3-Triazol-1-yl)methyl)-1-cyanopyrrolidin-3-yl)-5-(5-cyano-2-cyclopropylphenyl)-N-cyclopropyl-1,3,4-oxadiazole-2-carboxamide]",11,15
"COc1ccccc1-c1cnc(C(=O)N[C@@H]2C[C@@H](Cn3ccnn3)N(C#N)C2)o1 [Example 6, N-((3R,5S)-5-((1H-1,2,3-Triazol-1-yl)methyl)-1-cyanopyrrolidin-3-yl)-5-(2-methoxyphenyl)oxazole-2-carboxamide]",23,180
"N#CN1C[C@H](NC(=O)c2ncc(-c3ccccc3C3CC3)o2)C[C@H]1Cn1ccnn1 [Example 8, N-((3R,5S)-5-((1H-1,2,3-Triazol-1-yl)methyl)-1-cyanopyrrolidin-3-yl)-5-(2-cyclopropylphenyl)oxazole-2-carboxamide]",14,41
"N#CN1C[C@H](NC(=O)c2ncc(-c3cccc(C4CC4)c3)o2)C[C@H]1Cn1ccnn1 [Example 12, N-((3R,5S)-5-((1H-1,2,3-Triazol-1-yl)methyl)-1-cyanopyrrolidin-3-yl)-5-(3-cyclopropylphenyl)oxazole2-carboxamide]",8,25
"N#CN1C[C@H](NC(=O)c2nnc(-c3cc(OC(F)(F)F)ccc3C3CC3)o2)C[C@H]1Cn1ccnn1 [Example 13, N-((3R,5S)-5-((1H-1,2,3-Triazol-1-yl)methyl)-1-cyanopyrrolidin-3-yl)-5-(2-cyclopropyl-5-(trifluoromethoxy)phenyl)-1,3,4-oxadiazole-2-carboxamide]",5,6
"N#Cc1ccc(OC2COC2)c(-c2cnc(C(=O)N(C3CC3)[C@@H]3C[C@@H](Cn4ccnn4)N(C#N)C3)o2)c1 [Example 16, N-((3R,5S)-5-((1H-1,2,3-Triazol-1-yl)methyl)-1-cyanopyrrolidin-3-yl)-5-(5-cyano-2-(oxetan-3-yloxy)phenyl)-N-cyclopropyloxazole-2-carboxamide]",28,950
"N#CN1C[C@H](NC(=O)c2cc(-c3cccc(C(F)(F)F)c3)ccn2)C[C@H]1Cn1ccnn1 [Example 24, N-((3R,5S)-5-((1H-1,2,3-Triazol-1-yl)methyl)-1-cyanopyrrolidin-3-yl)-4-(3-(trifluoromethyl)phenyl)picolinamide]",9,620
"N#Cc1cccc(-c2cnc(C(=O)N[C@@H]3C[C@@H](Cn4cccn4)N(C#N)C3)o2)c1 [Example 26, N-((3R,5S)-5-((1H-Pyrazol-1-yl)methyl)-1-cyanopyrrolidin-3-yl)-5-(3-cyanophenyl)oxazole-2-carboxamide]",5,14
"N#CN1C[C@H](NC(=O)c2ncc(-c3cccc(C(F)(F)F)c3)o2)C[C@H]1Cn1cccn1 [Example 30, N-((3R,5S)-5-((1H-Pyrazol-1-yl)methyl)-1-cyanopyrrolidin-3-yl)(3(trifluoromethyl)phenyl)oxazole-2-carboxamide]",11,14
"N#Cc1ccc(C2CC2)c(-c2nnc(C(=O)N[C@@H]3C[C@@H](Cn4cccn4)N(C#N)C3)o2)c1 [Example 46, N-((3R,5S)-5-((1H-Pyrazol-1-yl)methyl)-1-cyanopyrrolidin-3-yl)-5-(5-cyano-2-cyclopropylphenyl)-1,3,4-oxadiazole-2-carboxamide]",9,19

# Now those with a lower IC50 (USP30), led by results:
IC50 (USP30) [nM],Compound,"EC1.5x (Geomean, nM); TOM20-Ub 1.5-fold gain (TOM20 ubiquitylation) [nM]"
2,"N#Cc1cccc(-c2cnc(C(=O)N[C@@H]3C[C@@H](Cn4ccnn4)N(C#N)C3)o2)c1 [Example 3, N-((3R,5S)-5-((1H-1,2,3-Triazol-1-yl)methyl)-1-cyanopyrrolidin-3-yl)-5-(3-cyanophenyl)oxazole-2-carboxamide]",8
4,"N#CN1C[C@H](NC(=O)c2ncc(-c3cccc(Cl)c3)o2)C[C@H]1Cn1ccnn1 [Example 5, N-((3R,5S)-5-((1H-1,2,3-Triazol-1-yl)methyl)-1-cyanopyrrolidin-3-yl)-5-(3-chlorophenyl)oxazole-2-carboxamide]",9
4,"N#Cc1cccc(-c2cnc(C(=O)N[C@@H]3C[C@@H](Cn4nccn4)N(C#N)C3)o2)c1 [Example 17, N-((3R,5S)-5-((2H-1,2,3-Triazol-2-yl)methyl)-1-cyanopyrrolidin-3-yl)-5-(3-cyanophenyl)oxazole-2-carboxamide]",16
2,"N#Cc1cccc(-c2cnc(C(=O)N[C@@H]3C[C@@H](Cn4cncn4)N(C#N)C3)o2)c1 [Example 18, N-((3R,5S)-5-((1H-1,2,4-Triazol-1-yl)methyl)-1-cyanopyrrolidin-3-yl)-5-(3-cyanophenyl)oxazole-2-carboxamide]",16
